{
  "source": "patent US20210382068A1",
  "about": "“HLA SINGLE ALLELE LINES” (priority 2018, published 2021)",
  "molecules": {"B1": {"name": "IFNγ: interferon gamma (Peprotech) used to stimulate cultured tumor cells (protein, UniProt P01579 24-161, looked up)", "Interferon gamma": "QDPYVKEAENLKKYFNAGHSDVADNGTLFLGILKNWKEESDRKIMQSQIVSFYFKLFKNFKDDQSIQKSVETIKEDMNVKFFNSNKKKRDDFEKLTNYSVTDLNVQRKAIHELIQVMAELSPAAKTGKRKRSQMLFRG"}},
  "key": {"[1]": {"system": "advanced hormone refractory prostate cancer patients", "conditions": "cited from earlier work"}, "[2]": {"system": "ovarian carcinoma patients", "conditions": "cited from earlier work"}, "[3]": {"conditions": "more than 25 clinical trials; cited from earlier work"}, "healthy human volunteers": {"system": "healthy human volunteers", "conditions": "8 subjects with one single s.c. administration versus 4 subjects receiving placebo; cited from earlier work"}, "[4]": {"system": "patient tumor cell lines (MEL, GBM, ccRCC)", "assay": "IFNγ stimulation of patient tumor cell lines, HLA-bound peptides by IP/MS", "format": "cell-based, human", "conditions": "IFNγ-matched samples, 2000 Unit/ml IFNg for 3 days"}},
  "data": [
    {"molecule": "C[C@]12CC[C@@H]3c4ccc(OC(=O)N(CCCl)CCCl)cc4CC[C@H]3[C@@H]1CC[C@@H]2O", "note": "[estramustine]", "values": [
      {"measurement": "patients with >50% decrease in serum prostate specific antigen (PSA)", "setting": "[1]", "value": 54, "unit": "%"}
    ]},
    {"molecule": "Polyinosinic-Polycytidylic Acid-poly-L-lysine Carboxymethylcellulose [poly-ICLC]", "values": [
      {"measurement": "generation of NY-ESO-1-specific CD4+ and CD8+ T-cell and antibody responses", "setting": "[2]; 1.4 mg poly-ICLC and Montanide added, compared to OLP alone or OLP and Montanide", "value": "markedly enhanced"},
      {"measurement": "patients showing induction of CD4+ and CD8+ T cell, as well as antibody responses to the peptide", "setting": "[2]; poly-ICLC in combination with NY-ESO-1 peptide vaccine, in addition to Montanide, phase 1", "value": "> 90", "unit": "%"},
      {"measurement": "toxicity profile", "setting": "[3]", "value": "relatively benign toxicity profile"},
      {"measurement": "differential expression of genes versus placebo", "setting": "healthy human volunteers", "value": "up to 212 genes"}
    ]},
    {"molecule": "B1", "values": [
      {"measurement": "increase in peptides derived from IFNγ-response genes post stimulation", "setting": "[4]", "value": "2.4-5.6%"}
    ]}
  ]
}
